# Experimental data from patent publication US20150148304A1, “Novel Peptides and Analogs for Use in the Treatment of Macrophage Activation Syndrome” (Soligenix, Inc., priority 2013, published 2015).
# No end group written: not given here.
# Columns and labels:
# [1] = Phase 1 study in healthy volunteers, safety (SAD and MAD phases); assay type: in vivo, human
# Text: Clinical experience with RIVPA (SEQ ID NO. 5) was obtained in a Phase 1 Study. The primary objective of the study was to determine the maximum tolerated dose (MTD) of single and repeat ascending doses of RIVPA (SEQ ID NO. 5) injectable solution following IV administration in healthy volunteers. The secondary objectives of this study included the assessment of the dose limiting toxicity (DLT), safety, PK and pharmacodynamic (PD) profiles of RIVPA (SEQ ID NO. 5) after single and repeated ascending IV doses of RIVPA (SEQ ID NO. 5). The study was divided into 2 phases: a single-ascending dose (SAD) phase and a multiple-ascending dose (MAD) phase.
# Single IV doses of RIVPA (SEQ ID NO. 5) were well tolerated up to the maximum tested (8 mg/kg) and daily IV doses were well tolerated up to the maximum tested (6.5 mg/kg for 7 days). There were no dose limiting toxicities (DLTs) and the MTD was not reached in either phase of the trial. There were no deaths and no clinically significant, severe, or serious Adverse Events (AEs) reported during the study.
# The most frequently reported TEAEs (observed in more than one subject who received RIVPA (SEQ ID NO. 5) and in a higher proportion (%) than placebo subjects) were study treatment procedure-related events (General Disorders and Administration Site Conditions) such as vessel puncture site haematoma, vessel puncture site reaction and vessel puncture site pain. All vessel puncture-related events were mild and determined to be unrelated to study treatment by the QI. The second most frequently reported TEAEs were Nervous System Disorders, specifically headache and dizziness; these events were only mild to moderate. All other TEAEs were reported by only 1 subject at any given dose level (maximum of 3 dose levels).
# The incidence of “possibly-related” events was also higher in the 2 highest dose levels. However, due to the small sample sizes (4 subjects received active treatment in each cohort), it was not possible to conclude whether the results definitely represented a dose-response. The majority of the TEAEs were not related to study treatment and were mild in severity with only one event reported as moderate. The most frequently reported TEAEs for subjects who received RIVPA (SEQ ID NO. 5) were General Disorders and Administration Site Conditions (i.e., procedure-related events) such as vessel puncture site haematoma, vessel puncture site reaction, and vessel puncture site pain. All vessel puncture-related events were mild and judged to be unrelated to treatment. Increased alanine aminotransferase (ALT) and back pain were reported by 3 (15.0%) subjects who received RIVPA (SEQ ID NO. 5) and these events were observed by only one (10.0%) subject who received the placebo.
# [2] = system: whole blood; assay: ex vivo LPS stimulation of whole blood from Phase 1 subjects, cytokine/chemokine Activity Ratios; assay type: cell-based, human; conditions: dose range 0.15-2 mg/kg; 4 hours in vitro LPS stimulation of whole blood
# Protocol: In ex vivo investigations using blood samples obtained during the Phase 1 healthy human volunteer study, a number of cytokine and chemokine analytes were quantified after 4 hours of in vitro stimulation of whole blood with LPS. The inter-individual variability in analyte levels was larger than any variation in time or response to RIVPA (SEQ ID NO. 5) or placebo administration and the data were therefore self-normalized using the individual pre-dose analyte level to standardize all responses for each individual subject (the Activity Ratio). RIVPA (SEQ ID NO. 5) effects on the analyte Activity Ratios (ARs) were neither constant throughout time, nor linearly dose responsive.
# [3] = system: battery of CNS receptors and ion channels; assay: interaction with a battery of CNS receptors and ion channels in vitro; assay type: binding
# Protocol: No effects of RIVPA (SEQ ID NO. 5) have been observed on the central nervous system (CNS) in any study at any dose level and little or no radiolabelled RIVPA (SEQ ID NO. 5) was found in the mouse CNS at dose levels of either 20 or 90 mg/kg.
# [4] = GLP 14-day repeat-dose IV toxicity study in mice; assay type: in vivo, mouse
# Protocol: Two pilot and 2 definitive repeat-dose toxicity studies were conducted with RIVPA (SEQ ID NO. 5) in mice and cynomolgus monkeys using the intravenous (IV; slow bolus) route of administration.
# The safety of multiple daily injections of RIVPA (SEQ ID NO. 5) has also been evaluated in GLP studies in mice and cynomolgus monkeys. In mouse, doses of 20, 60, or 90 mg/kg/day were given IV for 14 days. […] In survivors of all groups, there was no evidence of toxicity in any organ or abnormal biochemistry or hematology.
# In the latter study, no effect on T-cell, B-cell or NK-cell counts was observed after 14 days of intravenous RIVPA (SEQ ID NO. 5) dosing in the NHP. […] Collectively, there is no indication of a potential for RIVPA (SEQ ID NO. 5) to cause immunotoxicity or non-specific immune activation. No hyperactivation or suppression of adaptive immune responses, or other impact on the phenotypes of cells associated with adaptive immunity, has been detected following RIVPA (SEQ ID NO. 5) administration.
substance,measurement,setting,value
"RIVPA-NH2 [RIVPA, L-arginyl-L-isoleucyl-L-valyl-L-prolyl-L-alanine-amide]",subjects reporting increased alanine aminotransferase (ALT) and back pain,"[1]; MAD phase, placebo one (10.0%) subject",3 (15.0%) subjects
same,MTD in humans,"[1]; either phase of the trial, no DLTs",not reached
same,single IV dose well tolerated up to the maximum tested,"[1]; healthy volunteers, SAD phase",8 mg/kg
same,daily IV dose well tolerated up to the maximum tested,"[1]; healthy volunteers, daily for 7 days, MAD phase",6.5 mg/kg
same,"anti-inflammatory status (higher TNF RII and IL-1ra, lower TNFα and IL-1β)",[2],evidence of an increase
same,interaction with CNS receptors and ion channels,[3],No interaction was detected
same,adverse effects at 20 mg/kg,"[4]; 20 mg/kg/day IV for 14 days, mouse",No adverse effects were observed
same,mortality at 60 mg/kg,"[4]; 60 mg/kg/day IV for 14 days, mouse",Lethality was also observed in 1 animal
same,mortality at high dose,"[4]; 90 mg/kg/day IV for 14 days, mouse",Deaths were observed
same,"immune-related organ weights, histopathology, hematology and clinical chemistry",[4]; mouse 14-day toxicity study,no changes were observed
